According to US20210230131A1, “POLYAMINO BIARYL COMPOUNDS AND THEIR USE” (INSERM (INSTITUT NATIONAL DE LA SANTÉ ET DE LA RECHERCHE …, priority 2018, published 2021):

Key:
Aβ1-40 peptide secretion = test: Quantification of secreted Aβ1-40 by ELISA in SY5Y-APP695WT cells; assay type: cell-based; conditions: Homo sapiens; concentration inhibiting 50% of Aβ1-40 peptide secretion in SY5Y cells; 24 h treatment; mean ± SD of at least two experiments in triplicate
Experimental: (§1) Cell culture and treatment. The human neuroblastoma cell line […] was maintained in Dulbecco's modified Eagle medium (DMEM, high glucose, pyruvate-GIBCO by Life Technologies) supplemented with 10% foetal bovine serum, 2 mM L-glutamine, 1 mM non-essential amino acids and penicillin/streptomycin (GIBCO by Life Technologies) at 37° C. in a 5% CO2 humidified incubator. […] cells were maintained in 75 cm^2 culture flasks (Falcon) with supplemented DMEM medium until they reached 80% of confluence 24 h before treatment. For compounds treatment, a 10 mM stock solution was diluted in freshly supplemented DMEM medium to obtain the precise final concentration of drug. Bafilomycin A1 (BafA1), the vacuolar […] type H+ ATPase inhibitor, was purchased from Merck Millipore and was used at a final dilution of 100 nM. For drug treatment, cells were plated at a rate of 5·10^5 cells per well into 12-well plates (Falcon) and cultured with 1 mL supplemented DMEM cell medium for 24 h before drug exposure. The following day, cell medium was replaced with fresh medium containing drugs diluted at the indicated concentrations. Cells were treated for 24 h. At the end of treatments, the cell medium was collected and kept at -80° C. until use for dosage. Then, cells were rinsed once with PBS and extracted in 100 μL of Laemmli buffer (10 mM Tris, 20% glycerol and 2% Sodium dodecyl sulfate) using a cell-scraper. The cell lysate was further sonicated (30 pulses of 0.5 s, 60 Hz) for 5 min. Total protein concentration was determined using the Pierce BCA Protein Assay Kit (Thermo scientific) according to the manufacturer's instructions. Samples were stored at -80° C. until analysis. Quantification of secreted Aβ1-40/1-42 and sAPPα/sAPPβ. Conditioned media of […] collected at the end of treatments were centrifuged at 1000 g for 5 min to eliminate cells debris. Aβ1-40 and Aβ1-42 peptide concentrations in […] were determined using amyloid-beta 40 and 42 Human ELISA kits (Invitrogen) according to the manufacturer's instructions after 1:10 and 1:2 dilutions of supernatants in ELISA buffer, respectively. sAPPα and sAPPβ concentrations in ng/mL were determined using the sAPPα/sAPPβ kit (Meso Scale Diagnostics, MSD®) according to the manufacturer's instructions. Compounds of the invention (compounds 24-37, 41, 44 and 51-58) were evaluated for their ability to modulate APP processing on SY5Y human neuroblastoma cell line stably expressing the neuronal isoform of human wild-type APP695 (SYSY-APPwt). Aβ levels (Aβ1-40 and Aβ1-42) after treatment with reference and tested compounds were measured by ELISA (Table 2). […] APP carboxy-terminal fragments (αCTFs and AICD) were measured by Western blot and quantified. The effect of reference and tested compounds on αCTFs and AICD are expressed as the intensity of corresponding western-blot bands resulting from the secretase cleavages.

Aβ1-42 peptide secretion = test: Quantification of secreted Aβ1-42 by ELISA in SY5Y-APP695WT cells; assay type: cell-based; conditions: Homo sapiens; concentration inhibiting 50% of Aβ1-42 peptide secretion in SY5Y cells; 24 h treatment; mean ± SD of at least two experiments in triplicate
Experimental: as §1

CTFα = test: APP carboxy-terminal fragment αCTF by Western blot in SY5Y-APP695WT cells; assay type: cell-based, human; conditions: CTFα increase compared to chloroquine ([CTF]compound/[CTF]CQ) at 3 μM; mean of at least three experiments
From the text: (§2) Antibodies. Primary antibodies used in this study for western-blot analysis included a homemade rabbit antiserum against the last 17 amino acids of human APP protein sequence, named APP-Cter-C17 (1/5000 in TBS-M). Anti-β-actin (1/10 000 in TBS-M) was obtained from Sigma. Anti-LC3B (1/2000 in TBS-BSA) and anti-p62/SQSTM1 (1/2000 in TBS-M) antibodies were purchased from Cell Signaling Technology. Secondary antibodies (peroxidase-labeled goat anti-rabbit IgG, 1/5000 or peroxidase-labeled horse anti-mouse IgG, 1/50000 in TBS-T) were obtained from Vector Laboratories.
(§3) Cell culture and treatment. The human neuroblastoma cell line SY5Y-APP^695WT was maintained in Dulbecco's modified Eagle medium (DMEM, high glucose, pyruvate—GIBCO by Life Technologies) supplemented with 10% foetal bovine serum, 2 mM L-glutamine, 1 mM non-essential amino acids and penicillin/streptomycin (GIBCO by Life Technologies) at 37° C. in a 5% CO2 humidified incubator. SY5Y-APP^695WT cells were maintained in 75 cm^2 culture flasks (Falcon) with supplemented DMEM medium until they reached 80% of confluence 24 h before treatment.
(§4) For drug treatment, cells were plated at a rate of 5·10^5 cells per well into 12-well plates (Falcon) and cultured with 1 mL supplemented DMEM cell medium for 24 h before drug exposure. The following day, cell medium was replaced with fresh medium containing drugs diluted at the indicated concentrations. Cells were treated for 24 h. At the end of treatments, the cell medium was collected and kept at −80° C. until use for dosage. Then, cells were rinsed once with PBS and extracted in 100 μL of Laemmli buffer (10 mM Tris, 20% glycerol and 2% Sodium dodecyl sulfate) using a cell-scraper. The cell lysate was further sonicated (30 pulses of 0.5 s, 60 Hz) for 5 min. Total protein concentration was determined using the Pierce BCA Protein Assay Kit (Thermo scientific) according to the manufacturer's instructions. Samples were stored at −80° C. until analysis.
(§5) Western Blot Analysis. Cell protein lysates were prepared for western-blot analysis by diluting the sample with 1 volume of NuPAGE® lithium dodecyl sulfate (LDS) 2× sample buffer supplemented with 20% NuPAGE® sample reducing agents (Invitrogen). Samples were heat 10 min at 100° C. 10 μg of total proteins per well were loaded onto a precast 4-12% Criterion XT Bis-Tris polyacrylamide gel (Bio-Rad) and electrophoresis was achieved after applying a tension of 150 V during 90 min using a Criterion electrophoresis Cell with the NuPAGE® MOPS SDS running buffer (1×). Proteins were transferred to a nitrocellulose membrane of […] pore size (G&E Healthcare) using the Criterion blotting system and applying a tension of 100 V for 45 min. To resolve proteins of low molecular weights such as carboxy-terminal fragments of APP, 12% Criterion XT Bis-Tris polyacrylamide gels (Bio-Rad) were used and electrophoresis was performed during 70 min at 150 V in a NuPAGE® MES SDS running buffer (1×). Proteins were transferred to a nitrocellulose membrane of 0.2 μm pore size (G&E Healthcare) at 100 V for 40 min. Molecular weights calibration was achieved using molecular weight markers (Novex and Magic Marks, Life Technologies). Protein transfer and quality were determined by a reversible Ponceau Red coloration (0.2% Xylidine Ponceau Red and 3% Trichloroacetic acid). Membranes were then blocked in 25 mM Tris-HCl pH 8.0, 150 mM NaCl, 0.1% Tween-20 (v/v) (TBS-T) and 5% (w/v) of skimmed milk (TBS-M) or 5% (w/v) of bovine serum albumin (TBS-BSA) depending on the antibody during 1 h. Membrane was rinsed three-times 10 min in TBS-T before incubation with the primary antibody overnight at 4° C. Membrane was rinsed 3 times 10 min with TBS-T and then incubated with the secondary antibody for 45 min at room temperature (RT). […] Quantifications of protein expression levels were performed with ImageJ Software (NIH). […]

AICD = AICD by Western blot in SY5Y-APP695WT cells; assay type: cell-based, human; conditions: AICD increase compared to chloroquine ([AICD]compound/[AICD]CQ) at 3 μM; mean of at least three experiments
From the text: as §2, §3, §4, §5

| Structure (SMILES) | IC50 (Aβ1-40 peptide secretion) [µM] | IC50 (Aβ1-42 peptide secretion) [µM] | CTFα vs CQ (3 μM) (CTFα) | AICD vs CQ (3 μM) (AICD) |
| --- | --- | --- | --- | --- |
| CN(C)CCCNc1ccc(-n2ccc(CN(C)C)c2)cc1OCCN1CCCCC1 [Compound 55, 4-(3-[(dimethylamino)methyl]-1H-pyrrol-1-yl)-N-[3-(dimethylamino)propyl]-2-[2-(piperidin-1-yl)ethoxy]aniline] | 6.1 ± 0.7 | 8 ± 1.6 | 1.2 | 0.8 |
| CN(C)Cc1ccccc1-c1ccc(NCCCCN2CCCCC2)c(OCCN2CCCCC2)c1 [Compound 36, 2′-((Dimethylamino)methyl)-N-(4-(piperidin-1-yl)butyl)-3-(2-(piperidin-1-yl)ethoxy)-[1,1′-biphenyl]-4-amine] | 1.7 ± 0.3 | 1.6 ± 0.8 | 4.2 | 3.0 |
| CN(C)Cc1ccn(-c2ccc(NCCCN3CCCCC3)c(OCCN3CCCCC3)c2)c1 [Compound 51, 4-(3-[(Dimethylamino)methyl]-1H-pyrrol-1-yl)-2-[2-(piperidin-1-yl)ethoxy]-N-[3-(piperidin-1-yl)propyl]aniline] | 5 ± 0.9 | 6.5 ± 2 | 3.6 | 2.0 |
| CN(C)Cc1ccccc1-c1ccc(NCCN2CCCCC2)c(OCCN2CCCCC2)c1 [Compound 33, 2′-((Dimethylamino)methyl)-3-(2-(piperidin-1-yl)ethoxy)-N-(2-(piperidin-1-yl)ethyl)-[1,1′-biphenyl]-4-amine] | 1.4 ± 0.5 | 1.2 ± 0.6 | 5.0 | 4.8 |
| CN(C)CCCNc1ccc(-n2ccc(CN3CCOCC3)c2)cc1OCCN1CCCCC1 [Compound 57, N-[3-(Dimethylamino)propyl]-4-[3-(morpholine-4-ylmethyl)-1H-pyrrol-1-yl]-2-[2-(piperidin-1-yl)ethoxy]aniline] | 2.8 ± 1.1 | 3.4 ± 2 | 2.2 | 2.6 |
| CN(C)Cc1ccc(-c2ccc(NCCCN3CCCCC3)c(OCCN3CCCCC3)c2)cc1 [Compound 25, 4-(4-[(Dimethylamino)methyl]phenyl)-2-[2-(piperidin-1-yl)ethoxy]-N-[3-(piperidin-1-yl)propyl]aniline] | 1.5 ± 0.1 | 1.7 ± 0.4 | 2.1 | 2.5 |
| c1cn(-c2ccc(NCCCN3CCCCC3)c(OCCN3CCCCC3)c2)cc1CN1CCCCC1 [Compound 52, 2-[2-(Piperidin-1-yl)ethoxy]-N-[3-(piperidin-1-yl)propyl]-4-[3-(piperidin-1-ylmethyl)-1H-pyrrol-1-yl]aniline] | 3.7 ± 1.3 | 5 ± 0.3 | 3.3 | 1.2 |
| CCN(CC)CCCC(C)Nc1ccnc2cc(Cl)ccc12 (stereo not shown) [CQ, chloroquine, reference compound] |  |  | 1 | 1 |

The remaining compounds from weak to strong by IC50 (Aβ1-40 peptide secretion), led by results:

| IC50 (Aβ1-40 peptide secretion) [µM] | IC50 (Aβ1-42 peptide secretion) [µM] | Structure (SMILES) | CTFα vs CQ (3 μM) (CTFα) | AICD vs CQ (3 μM) (AICD) |
| --- | --- | --- | --- | --- |
| 8.3 ± 4 | 12.1 ± 7.8 | CN1CCN(Cc2ccn(-c3ccc(NCCCN4CCCCC4)c(OCCN4CCCCC4)c3)c2)CC1 [Compound 54, 4-(3-[(4-Methylpiperazin-1-yl)methyl]-1H-pyrrol-1-yl)-2-[2-(piperidin-1-yl)ethoxy]-N-[3(piperidin-1-yl)propyl]aniline] |  |  |
| 5.2 ± 0.1 | 4 ± 0.4 | c1ccc(-c2ccc(NCCCN3CCCCC3)c(OCCN3CCCCC3)c2)cc1 [Compound 37, 3-(2-(Piperidin-1-yl)ethoxy)-N-(3-(piperidin-1-yl)propyl)-[1,1′-biphenyl]-4-amine] | 2.4 | 2.1 |
| 4.3 ± 0.7 | 4.8 ± 0.6 | c1cc(CN2CCCCC2)cc(-c2ccc(NCCCN3CCCCC3)c(OCCN3CCCCC3)c2)c1 [Compound 26, 2-[2-(1-piperidyl)ethoxy]-4-[3-(1-piperidylmethyl)phenyl]-N-[3-(1-piperidyl)propyl]aniline] | 3.3 | 2.6 |
| 2.8 ± 1.2 | 4.2 ± 1.5 | c1ccc(-c2ccc(NCCCN3CCCCC3)c(OCCN3CCCCC3)c2)c(CN2CCOCC2)c1 [Compound 28, 4-[2-(Morpholin-4-ylmethyl)phenyl]-2-[2-(piperidin-1-yl)ethoxy]-N-[3-(piperidin-1-yl)propyl]aniline] | 3.1 | 1.7 |
| 2 ± 0.2 | 1.8 ± 0.7 | CN(C)Cc1ccccc1-c1ccc(NCCN2CCCCC2)c(OCCCN2CCCCC2)c1 [Compound 34, 2′-((Dimethylamino)methyl)-N-(2-(piperidin-1-yl)ethyl)-3-(3-(piperidin-1-yl)propoxy)-[1,1′-biphenyl]-4-amine] | 4.5 | 3.4 |
| 1.5 ± 0.3 | 1.2 ± 0.3 | CN(C)Cc1ccccc1-c1cccc(OCCN2CCCCC2)c1 [Compound 41, N,N-Dimethyl-1-(3′-(2-(piperidin-1-yl)ethoxy)-[1,1′-biphenyl]-2-yl)methanamine] | 0.6 | 0.7 |
